Assay results taken from patent US6551993B1, “Partial agonists at the glycine modulatory site of the NMDA receptor for treating cognitive dysfunction” (Thomas Jefferson University, priority 1999, dated 2003).
Entries after “also recorded” stand apart in the source; their conditions may differ.

Tests used:
Type in all cases: in vivo, cynomolgus monkeys (Macaca fascicularis)
[1] = test system: chronic low dose MPTP-treated monkeys; assay: spatial delayed response (DR) task
Text: (§1) Four adult male cynomolgus monkeys (Macaca fascicularis) weighing 5.0-8.0 kg at the beginning of testing were used. All animals had prior behavioral testing experience and had stable cognitive deficits as a result of prior MPTP administration. These animals had previously been used in other pharmacological studies (Schneider J S, Tinker J P, Van Velson M, Menzaghi F, Lloyd G K. Nicotinic acetylcholine receptor agonist SIB-1508Y improves cognitive functioning in chronic low dose MPTP-treated monkeys. J Pharmacol Exp Ther 290: In Press, 1999) but had received no drug treatments for at least 6 mos. prior to the start of this study. This study was approved by the Institutional Animal Care and Use Committee at Thomas Jefferson University and performed in accordance with the NIH Guide for the Care and Use of Laboratory Animals.
(§2) Three of the four animals were tested in a modified Wisconsin General Test Apparatus (WGTA) (Schneider and Kovelowski, 1990); one animal performed computer automated tasks while seated in front of a touch sensitive computer monitor located in a darkened sound-attenuated cubicle. All monkeys performed a spatial delayed response (DR) task, a variable delayed response task (VDR) and a visual discrimination (VD) task.
(§3) The monkeys that performed in the WGTA sat in a restraining chair situated in a sound-attenuating chamber with background masking noise, behind an opaque screen that when raised, allowed access to a sliding tray. The tray contained recessed food wells and identical sliding red Plexiglas covers that served as stimulus plaques that could be displaced by the animal to obtain rewards (raisins, dried fruit, marshmallows). The monkeys were trained to retrieve food from one of the wells after observing the experimenter bait a well. Right and left wells were baited in a balanced order. Each daily session consisted of 30 trials. For VDR testing, five different delay lengths (2, 5, 10, 20 and 30 secs.) were randomly distributed in blocks of trials over the 40 trials that made up a daily testing session. For VD testing, monkeys were trained to discriminate between two patterns (a cross and a horizontal bar) on otherwise identical Plexiglas covers. The position of the positive stimulus (cross) over the left or right food well varied pseudorandomly. The cover had to be displaced in order to retrieve reward from the recessed food well beneath the cover. A test session consisted of 30 trials. Animals were food deprived overnight prior to testing the next day.
(§4) The monkey that performed the computer automated tasks sat in a restraining chair situated in a sound-attenuating chamber with background masking noise, and faced a touch sensitive computer screen with a lever located beneath it. The animal initiated a DR or VDR trial by holding down the lever for one to three seconds. This caused the cue, a filled white circle one inch in diameter, to appear on the right or left side of the screen for two seconds. The cue was then extinguished for a delay period (five seconds for DR; 2, 5, 10, 20, and 30 secs. for VDR) and then identical left and right choice stimuli (filled red circles, one inch in diameter) were presented. The monkey was rewarded with a fruit flavored drink from an automatic dispenser if it touched the response light located on the same side as where the cue appeared. Side of cue presentation was counter-balanced and left/right rewards were distributed pseudorandomly over the 30 trials (40 trials for VDR) that made up a daily testing session. This animal was tested in the morning and fluid deprived overnight prior to testing.
(§5) Animals initially received low doses of MPTP for periods of up to 178 days until stable cognitive deficits (consistent performance deficits of at least 15% on DR) were observed (Schneider et al., 1999). These animals had not received any MPTP for at least 9 months prior to the start of this study. […]

[2] = test system: chronic low dose MPTP-treated monkeys; assay: visual discrimination (VD) task
Text: as §1, §2
as §3, with “A test session consisted of 30 trials. Animals were food deprived overnight prior to testing the next day.” left out
Animals initially received low doses of MPTP for periods of up to 178 days until stable cognitive deficits (consistent performance deficits of at least 15% on DR) were observed (Schneider et al., 1999). […] Drug effects were determined for D-cycloserine and MK-801 (Research Biochemicals International, Natick, M A) at doses of 100, 320, 1,000, and 8,000 μg/kg and 10, 20 or 32 μg/kg, respectively. […]

[3] = test system: chronic low dose MPTP-treated monkeys; assay: motor functioning during visual discrimination testing
[4] = test system: chronic low dose MPTP-treated monkeys; assay: variable delayed response (VDR) task
Text: as §1, §2, §3, §4, §5

SMILES	DR performance ([1]; 10-32 μg/kg i.m., vs. saline)	VD performance ([2]; 10-32 μg/kg i.m., all animals, p<0.01 vs. saline, FIG. 2)	motor functioning ([3]; 10-32 μg/kg i.m.)	DR performance ([1]; 100 μg/kg i.m., approx. 30 min before test, vs. saline)	DR performance ([1]; 320 μg/kg i.m., approx. 30 min before test, vs. saline (t=6.73, p<0.01))	DR performance ([1]; 1,000 μg/kg i.m., approx. 30 min before test, vs. saline (t=3.76, p<0.05))	DR performance ([1]; 8,000 μg/kg i.m., approx. 30 min before test, vs. saline)	MPTP-induced DR performance deficit ([1]; dose response 100 to 1000 μg/kg i.m., 4 animals, FIG. 1A)	VDR performance ([4]; 100 μg/kg i.m., all delays (2, 5, 10, 20, 30 sec))	VDR performance ([4]; 320 μg/kg i.m., at 2, 5, and 20 sec. delays)	VDR performance ([4]; 1,000 μg/kg i.m., at 2, 5, and 10 sec delays)	VDR performance ([4]; 8,000 μg/kg i.m.)	VDR performance ([4]; 30 sec. delay, any dose)	VDR performance ([4]; best (most facilitating) dose for each animal vs. saline, FIG. 1B)	VD performance ([2]; 8,000 μg/kg i.m., all animals, p<0.01 vs. saline, FIG. 2)	VD performance ([2]; 100 to 1,000 μg/kg i.m.)	deficits in VD performance ([2]; low doses (10, 32 or 100 μg/kg))	motor functioning ([3]; 8,000 μg/kg i.m.)
C[C@]12N[C@H](Cc3ccccc31)c1ccccc12 [MK-801]	had no effects	significantly disrupted; also recorded: significant impairment	did not significantly impair motor functioning															
N[C@@H]1CONC1=O [D-cycloserine]				Neither the low (100 μg/kg) nor high (8,000 μg/kg) doses of D-cycloserine had any effect	significantly improving task performance	significantly improving task performance	Neither the low (100 μg/kg) nor high (8,000 μg/kg) doses of D-cycloserine had any effect; also recorded: neither improvement nor further disruption	at least partially corrected	had no effects	significantly improved performance	significantly improved performance	neither improvement nor further disruption	None of the doses of D-cycloserine improved performance	significantly improved performance at all but the longest delay	significantly disrupted; also recorded: significantly impaired; also recorded: deficits induced in VD performance	had no effects	not with low doses	did not significantly impair motor functioning
